Results as given in patent publication US9908831B2, “Resist composition, method for forming resist pattern, polyphenolic compound for use in the composition, and alcoholic compound that can be derived therefrom” (Mitsubishi Gas Chemical Company, Inc., priority 2011, dated 2018).

Key:
Assay type in all cases: physicochemical
[1] = Solubility test of compound in safe solvent; settings: 23° C., visual
Procedure: (2) Solubility Test of Compound in Safe Solvent
(§1) The solubility of the compound in PGME and PGMEA was evaluated according to the following standard using the dissolution amount in each solvent. For the measurement of the dissolution amount, the compound was precisely weighed in a test tube at 23° C.; and the target solvent was added to the compound so that a predetermined concentration of the liquid to be obtained was set; a ultrasonic wave was applied to the liquid in an ultrasonic washing machine for 30 minutes; and the state of the resulting liquid was visually evaluated.
A: 5.0% by weight≦dissolution amount
B: 3.0% by weight≦dissolution amount<5.0% by weight
C: dissolution amount<3.0% by weight

[2] = Glass transition temperature by DSC; settings: 10° C./min to 300° C., second heating after quench, nitrogen gas stream
Procedure: (4) Glass Transition Temperature
The apparatus EXSTAR6000DSC (trade name) manufactured by SII NanoTechnology Inc. was used. About 5 mg of each sample was placed in a non-sealed container made of aluminum, and the temperature was raised to 300° C. at the rate of temperature rise of 10° C./min in a nitrogen gas stream (30 mL/min). After the non-sealed container made of aluminum was quenched, again the temperature was raised to 300° C. at the rate of temperature rise of 10° C./min in a nitrogen gas stream (30 mL/min), thereby performing DSC measurement. The temperature corresponding to the middle point (where the specific heat was changed into the half) of a region in which a discontinuous portion appeared in the baseline was defined as the glass transition point.

[3] = Solubility of compound in methyl ethyl ketone (MEK); settings: dissolution amount in MEK at 23° C., visual
Procedure: (1) Solubility of Compound in Methyl Ethyl Ketone (MEK)
as §1, with “MEK” for “PGME and PGMEA”, “MEK at 23° C.” for “each solvent.”
Evaluation A: 50% by weight or more
Evaluation B: 10% by weigh or more and less than 50% by weight
Evaluation C: less than 10% by weight

[4] = Thermal decomposition temperature by DSC; settings: 10° C./min to 500° C., nitrogen gas stream
Procedure: (3) Thermal Decomposition Temperature
The apparatus EXSTAR6000DSC (trade name) manufactured by SII NanoTechnology Inc. was used. About 5 mg of each sample was placed in a non-sealed container made of aluminum, and the temperature was raised to 500° C. at the rate of temperature rise of 10° C./min in a nitrogen gas stream (30 mL/min). The temperature corresponding to a descending peak appeared in the baseline was defined as the thermal decomposition temperature.

SMILES | Solubility test of compound in safe solvent PGME [1] | Solubility test of compound in safe solvent PGMEA [1] | glass transition point [2] | solubility in MEK [3] | thermal decomposition temperature [4]
Oc1ccc2c(C3(c4c(O)ccc5cc(O)ccc45)CCCCC3)c(O)ccc2c1 [BisN-10] | A (A: 5.0% by weight≦dissolution amount) | A (A: 5.0% by weight≦dissolution amount) | 100 °C | B (Evaluation B: 10% by weigh or more and less than 50% by weight) | 210 °C
Oc1ccc2c3c(ccc2c1)Oc1ccc2cc(O)ccc2c1C3c1ccc(-c2ccccc2)cc1 [XBisN-1] | A (A: 5.0% by weight≦dissolution amount) | A (A: 5.0% by weight≦dissolution amount) | 152 °C | A (Evaluation A: 50% by weight or more) | 410 °C
Oc1ccc2c(C(c3cc(C(c4c(O)ccc5cc(O)ccc45)c4c(O)ccc5cc(O)ccc45)cc(C(c4c(O)ccc5cc(O)ccc45)c4c(O)ccc5cc(O)ccc45)c3)c3c(O)ccc4cc(O)ccc34)c(O)ccc2c1 [BisN-14] | A (A: 5.0% by weight≦dissolution amount) | A (A: 5.0% by weight≦dissolution amount) | 130 °C | B (Evaluation B: 10% by weigh or more and less than 50% by weight) | 245 °C
Oc1cccc2c3c(ccc12)C(c1ccc(-c2ccccc2)cc1)c1ccc2c(O)cccc2c1O3 [XBisN-3] | A (A: 5.0% by weight≦dissolution amount) | A (A: 5.0% by weight≦dissolution amount) | 152 °C | B (Evaluation B: 10% by weigh or more and less than 50% by weight) | 410 °C
Oc1cccc2c3c(ccc12)Oc1ccc2c(O)cccc2c1C3c1ccc(-c2ccccc2)cc1 [XBisN-4] | A (A: 5.0% by weight≦dissolution amount) | A (A: 5.0% by weight≦dissolution amount) | 152 °C | B (Evaluation B: 10% by weigh or more and less than 50% by weight) | 410 °C
Oc1ccc2c(C(c3c(O)ccc4cc(O)ccc34)c3cc4ccccc4c4ccccc34)c(O)ccc2c1 [BisN-8] | A (A: 5.0% by weight≦dissolution amount) | A (A: 5.0% by weight≦dissolution amount) | 140 °C | B (Evaluation B: 10% by weigh or more and less than 50% by weight) | 255 °C
Oc1ccc2ccc(C(c3ccc(-c4ccccc4)cc3)c3ccc4ccc(O)cc4c3O)c(O)c2c1 [BisN-5] | A (A: 5.0% by weight≦dissolution amount) | A (A: 5.0% by weight≦dissolution amount) | 130 °C | B (Evaluation B: 10% by weigh or more and less than 50% by weight) | 250 °C
Oc1ccc2ccc3c(c2c1)Oc1c(ccc2ccc(O)cc12)C3c1ccc(-c2ccccc2)cc1 [XBisN-5] | A (A: 5.0% by weight≦dissolution amount) | A (A: 5.0% by weight≦dissolution amount) | 152 °C | B (Evaluation B: 10% by weigh or more and less than 50% by weight) | 410 °C
Oc1ccc2c3c(ccc2c1)Oc1ccc2cc(O)ccc2c1C3c1cccc2ccccc12 [XBisN-7] | A (A: 5.0% by weight≦dissolution amount) | A (A: 5.0% by weight≦dissolution amount) | 155 °C | B (Evaluation B: 10% by weigh or more and less than 50% by weight) | 415 °C
Oc1ccc2c3c(ccc2c1)Oc1ccc2cc(O)ccc2c1C3c1ccc(C2c3c(ccc4cc(O)ccc34)Oc3ccc4cc(O)ccc4c32)cc1 [XBisN-12] | A (A: 5.0% by weight≦dissolution amount) | A (A: 5.0% by weight≦dissolution amount) | 152 °C | B (Evaluation B: 10% by weigh or more and less than 50% by weight) | 410 °C
Oc1ccc2c3c(ccc2c1)Oc1ccc2cc(O)ccc2c1C3c1ccc(-c2ccc(C3c4c(ccc5cc(O)ccc45)Oc4ccc5cc(O)ccc5c43)cc2)cc1 [XBisN-13] | A (A: 5.0% by weight≦dissolution amount) | A (A: 5.0% by weight≦dissolution amount) | 152 °C | B (Evaluation B: 10% by weigh or more and less than 50% by weight) | 410 °C
